Consider 20 substances from the OligoGym collection.

HELM strings list units from the 5' end as sugar, base in round brackets, then linkage (d deoxyribose, r ribose, m 2'-O-methyl, p phosphodiester). Strings are as the collection lists them, not checked against the first reports. ss, as = sense and antisense strand; [lna] = locked nucleic acid (LNA); [hna] = hexitol nucleic acid; [fl2r] = 2'-fluoro
Note: test system not given here.

The conditions of the series: siRNA.
In turn, “RNA1{r(G)p.r(A)p.r(C)p.r(G)p.r(U)p.r(A)p.r(A)p.r(A)p.r(C)p.r(G)p.r(G)p.r(C)p.r(C)p.r(A)p.r(C)p.r(A)p.r(A)p.r(G)p.r(U)p.r(U)p.r(C)}|RNA2{[fl2r](A)p.m(C)p.[fl2r](U)p.m(U)p.[fl2r](G)p.m(U)p.[fl2r](G)p.m(G)p.[fl2r](C)p.m(C)p.[fl2r](G)p.m(U)p.[fl2r](U)p.m(U)p.[fl2r](A)p.m(C)p.[fl2r](G)p.m(U)p.[fl2r](C)p.m(G)p.[fl2r](C)}$$$RNA1{StrandType:ss}|RNA2{StrandType:as}$” displayed a target mRNA knockdown of 73.8%.

On to “RNA1{r(G)p.r(A)p.r(C)p.r(G)p.r(U)p.r(A)p.r(A)p.r(A)p.r(C)p.r(G)p.r(G)p.r(C)p.r(C)p.r(A)p.r(C)p.r(A)p.r(A)p.r(G)p.r(U)p.r(U)p.r(C)}|RNA2{r(A)p.m(C)p.r(U)p.r(U)p.r(G)p.r(U)p.r(G)p.r(G)p.r(C)p.r(C)p.r(G)p.r(U)p.r(U)p.r(U)p.r(A)p.r(C)p.r(G)p.r(U)p.r(C)p.r(G)p.r(C)}$$$RNA1{StrandType:ss}|RNA2{StrandType:as}$”, for which the target mRNA knockdown was 76%.

The substance “RNA1{r(G)p.r(A)p.r(C)p.r(G)p.r(U)p.r(A)p.r(A)p.r(A)p.r(C)p.r(G)p.r(G)p.r(C)p.r(C)p.r(A)p.r(C)p.r(A)p.r(A)p.r(G)p.r(U)p.r(U)p.r(C)}|RNA2{r(A)p.r(C)p.[lna](T)p.r(U)p.r(G)p.[lna](T)p.r(G)p.r(G)p.r(C)p.r(C)p.r(G)p.r(U)p.r(U)p.[lna](T)p.r(A)p.r(C)p.r(G)p.[lna](T)p.r(C)p.[lna](G)p.[lna](C)}$$$RNA1{StrandType:ss}|RNA2{StrandType:as}$” showed a target mRNA knockdown of 0%.

Take “RNA1{r(G)p.r(A)p.r(C)p.r(G)p.r(U)p.r(A)p.r(A)p.r(A)p.r(C)p.r(G)p.r(G)p.r(C)p.r(C)p.r(A)p.r(C)p.r(A)p.r(A)p.r(G)p.r(U)p.r(U)p.r(C)}|RNA2{r(A)p.r(C)p.r(U)p.r(U)p.r(G)p.r(U)p.r(G)p.r(G)p.r(C)p.r(C)p.r(G)p.r(U)p.r(U)p.r(U)p.r(A)p.r(C)p.r(G)p.r(U)p.[lna](C)p.[lna](G)p.r(C)}$$$RNA1{StrandType:ss}|RNA2{StrandType:as}$”: the target mRNA knockdown worked out at 86.3%.

Consider “RNA1{r(G)p.r(A)p.r(C)p.r(G)p.r(U)p.r(A)p.r(A)p.r(A)p.r(C)p.r(G)p.r(G)p.r(C)p.r(C)p.r(A)p.r(C)p.r(A)p.r(A)p.r(G)p.r(U)p.r(U)p.r(T)}|RNA2{r(A)p.r(C)p.r(U)p.r(U)p.r(G)p.r(U)p.r(G)p.[hna](G)p.r(C)p.r(C)p.r(G)p.r(U)p.r(U)p.[hna](U)p.r(A)p.r(C)p.r(G)p.[hna](U)p.[hna](C)p.[hna](G)p.r(T)}$$$RNA1{StrandType:ss}|RNA2{StrandType:as}$”, for which the target mRNA knockdown is 87%.

Substance “RNA1{r(G)p.r(A)p.r(G)p.[fl2r](U)p.r(A)p.r(U)p.r(U)p.r(U)p.r(C)p.r(C)p.r(G)p.r(C)p.[fl2r](U)p.r(G)p.r(G)p.r(A)p.r(A)p.r(C)p.r(U)p.r(T)p.r(T)}|RNA2{r(A)p.r(G)p.r(U)p.r(U)p.r(C)p.[fl2r](C)p.r(A)p.r(G)p.r(C)p.r(G)p.r(G)p.r(A)p.r(A)p.r(A)p.[fl2r](U)p.r(A)p.r(C)p.r(U)p.r(C)p.r(T)p.r(T)}$$$RNA1{StrandType:ss}|RNA2{StrandType:as}$” registered a target mRNA knockdown of 73%.

In turn, “RNA1{r(G)p.r(A)p.r(G)p.[fl2r](U)p.r(A)p.r(U)p.r(U)p.r(U)p.r(C)p.r(C)p.r(G)p.r(C)p.r(U)p.r(G)p.r(G)p.r(A)p.r(A)p.r(C)p.r(U)p.r(T)p.r(T)}|RNA2{r(A)p.r(G)p.r(U)p.r(U)p.r(C)p.r(C)p.r(A)p.r(G)p.r(C)p.r(G)p.r(G)p.r(A)p.r(A)p.r(A)p.[fl2r](U)p.r(A)p.r(C)p.r(U)p.r(C)p.r(T)p.r(T)}$$$RNA1{StrandType:ss}|RNA2{StrandType:as}$” came in with a target mRNA knockdown of 75%.

For the substance “RNA1{r(G)p.r(A)p.r(G)p.r(A)p.r(G)p.r(A)p.r(G)p.r(A)p.r(C)p.r(G)p.r(G)p.m(U)p.m(G)p.r(G)p.r(A)p.r(A)p.r(G)p.r(A)p.r(A)p.r(T)p.r(T)}|RNA2{r(U)p.r(U)p.r(C)p.r(U)p.r(U)p.r(C)p.m(C)p.r(A)p.r(C)p.r(C)p.r(G)p.r(U)p.r(C)p.r(U)p.r(C)p.r(U)p.r(C)p.r(U)p.r(C)p.r(T)p.r(T)}$$$RNA1{StrandType:ss}|RNA2{StrandType:as}$”, the target mRNA knockdown was found to be 72%.

On to “RNA1{r(G)p.r(A)p.r(G)p.r(A)p.r(G)p.r(A)p.r(G)p.r(A)p.r(C)p.r(G)p.r(G)p.r(U)p.r(G)p.r(G)p.r(A)p.r(A)p.r(G)p.r(A)p.r(A)p.r(T)p.r(T)}|RNA2{r(U)p.r(U)p.r(C)p.r(U)p.r(U)p.r(C)p.r(C)p.m(A)p.r(C)p.r(C)p.r(G)p.r(U)p.r(C)p.r(U)p.r(C)p.r(U)p.r(C)p.r(U)p.r(C)p.r(T)p.r(T)}$$$RNA1{StrandType:ss}|RNA2{StrandType:as}$”, for which the target mRNA knockdown turned out to be 74%.

The substance “RNA1{r(G)p.r(A)p.r(G)p.r(G)p.r(A)p.m(U)p.r(G)p.r(G)p.r(A)p.r(U)p.r(U)p.r(C)p.r(G)p.m(A)p.r(C)p.r(U)p.m(U)p.r(A)p.r(G)p.r(T)p.r(T)}|RNA2{r(C)p.m(U)p.r(A)p.r(A)p.m(G)p.r(U)p.r(C)p.r(G)p.r(A)p.r(A)p.r(U)p.r(C)p.m(C)p.r(A)p.r(U)p.r(C)p.r(C)p.r(U)p.r(C)p.r(T)p.r(T)}$$$RNA1{StrandType:ss}|RNA2{StrandType:as}$” yielded a target mRNA knockdown of 91%.

Turning to “RNA1{r(G)p.r(A)p.r(G)p.r(G)p.r(A)p.r(A)p.r(G)p.r(A)p.m(U)p.r(G)p.r(A)p.r(G)p.r(U)p.m(U)p.r(G)p.m(U)p.r(A)p.r(C)p.r(C)p.r(T)p.r(T)}|RNA2{r(G)p.r(G)p.r(U)p.r(A)p.m(C)p.r(A)p.r(A)p.r(C)p.r(U)p.m(C)p.r(A)p.r(U)p.r(C)p.r(U)p.r(U)p.r(C)p.r(C)p.r(U)p.r(C)p.r(T)p.r(T)}$$$RNA1{StrandType:ss}|RNA2{StrandType:as}$”, the target mRNA knockdown came to 76%.

On to “RNA1{r(G)p.r(A)p.r(G)p.r(G)p.r(A)p.r(A)p.r(G)p.r(A)p.m(U)p.r(G)p.r(A)p.r(G)p.r(U)p.r(U)p.r(G)p.r(U)p.r(A)p.r(C)p.r(C)p.r(T)p.r(T)}|RNA2{r(G)p.r(G)p.r(U)p.r(A)p.m(C)p.r(A)p.r(A)p.r(C)p.r(U)p.m(C)p.r(A)p.r(U)p.r(C)p.r(U)p.r(U)p.r(C)p.r(C)p.r(U)p.r(C)p.r(T)p.r(T)}$$$RNA1{StrandType:ss}|RNA2{StrandType:as}$”, for which the target mRNA knockdown stood at 77%.

Substance “RNA1{r(G)p.r(A)p.r(G)p.r(G)p.r(A)p.r(U)p.r(G)p.r(G)p.r(A)p.r(U)p.r(U)p.r(C)p.r(G)p.r(A)p.r(C)p.r(U)p.r(U)p.r(A)p.r(G)p.r(T)p.r(T)}|RNA2{r(C)p.m(U)p.r(A)p.r(A)p.r(G)p.r(U)p.r(C)p.r(G)p.r(A)p.r(A)p.r(U)p.r(C)p.r(C)p.r(A)p.r(U)p.r(C)p.r(C)p.r(U)p.r(C)p.r(T)p.r(T)}$$$RNA1{StrandType:ss}|RNA2{StrandType:as}$” had a target mRNA knockdown of 94%.

Substance “RNA1{r(G)p.r(A)p.r(U)p.r(A)p.r(G)p.r(G)p.r(A)p.r(A)p.r(G)p.r(G)p.r(G)p.r(G)p.r(C)p.r(U)p.r(U)p.r(C)p.r(A)p.r(G)p.r(C)p.r(T)p.r(T)}|RNA2{r(G)p.m(C)p.m(U)p.r(G)p.r(A)p.r(A)p.r(G)p.m(C)p.m(C)p.m(C)p.m(C)p.m(U)p.m(U)p.m(C)p.m(C)p.m(U)p.r(A)p.m(U)p.m(C)p.r(T)p.r(T)}$$$RNA1{StrandType:ss}|RNA2{StrandType:as}$” registered a target mRNA knockdown of 12%.

In turn, “RNA1{r(G)p.r(A)p.r(U)p.r(U)p.r(C)p.m(C)p.r(A)p.r(A)p.r(A)p.r(C)p.r(C)p.r(C)p.r(C)p.r(A)p.r(C)p.m(U)p.r(A)p.r(U)p.r(C)p.r(T)p.r(T)}|RNA2{r(G)p.r(A)p.r(U)p.r(A)p.r(G)p.r(U)p.r(G)p.r(G)p.r(G)p.r(G)p.r(U)p.r(U)p.r(U)p.r(G)p.r(G)p.r(A)p.r(A)p.r(U)p.r(C)p.r(T)p.r(T)}$$$RNA1{StrandType:ss}|RNA2{StrandType:as}$” showed a target mRNA knockdown of 67%.

In the case of “RNA1{r(G)p.r(A)p.r(U)p.r(U)p.r(C)p.r(C)p.r(A)p.r(A)p.r(A)p.r(C)p.r(C)p.r(C)p.r(C)p.r(A)p.r(C)p.m(U)p.r(A)p.r(U)p.r(C)p.r(T)p.r(T)}|RNA2{r(G)p.r(A)p.r(U)p.m(A)p.r(G)p.r(U)p.r(G)p.r(G)p.r(G)p.r(G)p.r(U)p.r(U)p.r(U)p.r(G)p.r(G)p.r(A)p.r(A)p.r(U)p.r(C)p.r(T)p.r(T)}$$$RNA1{StrandType:ss}|RNA2{StrandType:as}$”, the target mRNA knockdown stood at 69%.

Substance “RNA1{r(G)p.r(C)p.[fl2r](U)p.r(A)p.r(C)p.r(C)p.r(G)p.[fl2r](C)p.r(A)p.r(A)p.r(C)p.[fl2r](C)p.r(A)p.r(C)p.r(G)p.r(A)p.r(G)p.r(C)p.r(U)p.r(T)p.r(T)}|RNA2{r(A)p.r(G)p.r(C)p.r(U)p.r(C)p.r(G)p.[fl2r](U)p.r(G)p.r(G)p.r(U)p.[fl2r](U)p.r(G)p.r(C)p.r(G)p.r(G)p.[fl2r](U)p.r(A)p.r(G)p.r(C)p.r(T)p.r(T)}$$$RNA1{StrandType:ss}|RNA2{StrandType:as}$” came in with a target mRNA knockdown of 42%.

For the substance “RNA1{r(G)p.r(C)p.[fl2r](U)p.r(A)p.r(C)p.r(C)p.r(G)p.r(C)p.r(A)p.r(A)p.r(C)p.r(C)p.r(A)p.r(C)p.r(G)p.r(A)p.r(G)p.r(C)p.r(U)p.r(T)p.r(T)}|RNA2{r(A)p.r(G)p.r(C)p.r(U)p.r(C)p.r(G)p.r(U)p.r(G)p.r(G)p.r(U)p.r(U)p.r(G)p.r(C)p.r(G)p.r(G)p.[fl2r](U)p.r(A)p.r(G)p.r(C)p.r(T)p.r(T)}$$$RNA1{StrandType:ss}|RNA2{StrandType:as}$”, the target mRNA knockdown turned out to be 45%.

Turning to “RNA1{r(G)p.r(C)p.[fl2r](U)p.r(G)p.[fl2r](U)p.r(A)p.r(A)p.r(C)p.r(C)p.r(U)p.r(C)p.r(G)p.r(G)p.r(A)p.r(G)p.r(A)p.r(G)p.r(U)p.r(U)p.r(T)p.r(T)}|RNA2{r(A)p.r(A)p.r(C)p.r(U)p.r(C)p.r(U)p.r(C)p.r(C)p.r(G)p.r(A)p.r(G)p.r(G)p.r(U)p.[fl2r](U)p.r(A)p.[fl2r](C)p.r(A)p.r(G)p.r(C)p.r(T)p.r(T)}$$$RNA1{StrandType:ss}|RNA2{StrandType:as}$”, the target mRNA knockdown was determined as 62%.

Substance “RNA1{r(G)p.r(C)p.[fl2r](U)p.r(G)p.r(A)p.r(A)p.r(C)p.[fl2r](U)p.r(A)p.r(G)p.r(U)p.r(C)p.r(G)p.r(A)p.r(A)p.r(A)p.r(G)p.r(A)p.r(A)p.r(T)p.r(T)}|RNA2{r(U)p.r(U)p.r(C)p.r(U)p.r(U)p.r(U)p.r(C)p.r(G)p.r(A)p.r(C)p.[fl2r](U)p.r(A)p.r(G)p.r(U)p.r(U)p.[fl2r](C)p.r(A)p.r(G)p.r(C)p.r(T)p.r(T)}$$$RNA1{StrandType:ss}|RNA2{StrandType:as}$” registered a target mRNA knockdown of 78%.
